Assay results: patent publication US5726156A, “Cytokine regulatory agents and methods of use in pathologies and conditions associated with altered cytokine levels” (Trega Biosciences, Inc., priority 1995, dated 1998)

Columns and labels:
[1] = system: Carageenan-induced paw swelling; assay: Carageenan-induced paw swelling; format: in vivo, mice; details: 1 μg/mouse; 2 hr time point
Description: Carageenan-induced paw swelling was induced using a modification of the methods of Hiltz and Lipton, Peptides 11:979-982 (1990); Vinegar et al., Fed. Proc. 46:118-126 (1987); and Vinegar et al., J. Pharmacol. Expt. Therap. 166:96-103 (1969), each of which is incorporated herein by reference. Briefly, adult female Balb/c mice were anesthetized by IP injection of 7 mg/kg ketoamine and 0.6 mg/kg rompun. Foot pad thickness was measured using a spring loaded micrometer (Swiss Precision Instruments). Foot pad thickness was expressed in units of 1/100 inch. After baseline measurements were obtained, mice were injected into a hind foot pad with either 0.2 ml physiologic saline (control) or varying doses of EX-2 or EX-3 in 0.2 ml saline (treated). The first injection was followed immediately by injection of 0.02 ml of 0.15% K-carageenan (Sigma Chemical Co.; St. Louis, Mo.).
Hind foot pad thickness was measured hourly for six hr, the change in thickness was determined and the percent reduction in swelling due to treatment with EX-2 was calculated.

[2] = system: Interleukin-6 (IL-6); assay: Reduction of LPS-induced IL-6 levels in mice; format: in vivo; details: 300 μg/mouse; LPS treated Balb/c mice
Description: Balb/c mice were grouped and treated as described in Example III, above. Blood samples were obtained from the orbital sinus at various times up to six hr and serum was collected and diluted as described above. A 100 μl aliquot was assayed for IL-6 levels using an IL-6-specific ELISA by a modification of the method of Starnes etal., J. Immunol. 145:4185-4194 (1990), which is incorporated herein by reference.
The mean (+/- SEM) IL-6 level in six mice from each group was determined and the percent reduction in IL-6 was calculated.

[3] = system: TNF-α; assay: Reduction of LPS-induced TNF levels in mice (IP dosing); format: in vivo; details: 30 μg/mouse IP, one min before LPS 5 mg/kg IP; vs untreated control mice
Description: Balb/c female mice weighing approximately 20 g were placed into two groups, a control group and a treated group. Five mg/kg of LPS in 0.9% saline was administered by intraperitoneal (IP) injection into the control mice. Mice in the treated group were first injected IP with 30 μg EX-2 or 150 μg EX-3 in saline, then, one min after EX-2 or EX-3 was administered, the mice received LPS as described for the control group.
Blood samples were collected from the orbital sinus of treated and control mice at various times up to four hr after LPS was administered. The plasma was separated by centrifugation at 3000×g for 5 min, then diluted with four volumes of 1× phosphate buffer saline (pH 7.4) containing 1% bovine serum albumin. A 100 μl sample of serum was assayed by ELISA for TNF-α (Genzyme; Cambridge Mass.).
The mean (+/- SEM) TNF-α level in six mice from each group was determined and the percent reduction in TNF levels was calculated.

For “Ac-Nle-Gln-His-(D)Phe-Arg-(D)Trp-Gly-NH2 [EX-2]”, the “Reduction in Carageenan-induced Paw Swelling” value [1] was 45%, the “Reduction in IL-6 levels” value [2] was 60% and the “Reduction in TNF levels” value [3] was 50%.
